Literature values, collected in patent publication US9182414B2, “Methods for identifying a GLP-1 secretagogue” (Arena Pharmaceuticals, Inc., priority 2005, dated 2015).
Square brackets hold non-standard residues; d marks the D form. Peptide text beside a SMILES is read from it. * marks the point of attachment. NHPhenethyl = c1ccc(CCN*)cc1; Nphe = O=C(O)CNCc1ccccc1; PhAc = O=C(Cc1ccccc1)*; βAla = NCCC(=O)O

Biological target: T1, BRS-3 (Homo sapiens, UniProt P32247)
T1 sequence (P32247 1-399): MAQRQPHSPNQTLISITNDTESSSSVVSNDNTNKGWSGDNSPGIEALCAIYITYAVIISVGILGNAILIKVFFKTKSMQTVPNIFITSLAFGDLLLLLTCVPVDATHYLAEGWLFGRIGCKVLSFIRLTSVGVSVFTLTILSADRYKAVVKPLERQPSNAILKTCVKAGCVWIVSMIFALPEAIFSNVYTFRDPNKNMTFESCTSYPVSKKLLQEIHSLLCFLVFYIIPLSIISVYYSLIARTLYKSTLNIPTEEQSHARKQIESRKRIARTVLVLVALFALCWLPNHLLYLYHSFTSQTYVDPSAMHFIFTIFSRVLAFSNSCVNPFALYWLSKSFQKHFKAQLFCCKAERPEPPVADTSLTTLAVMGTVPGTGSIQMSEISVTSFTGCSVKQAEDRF
Conditions: BRS-3 over GRP-R and NMB-R; description taken from literature

Molecule	selectivity as BRS-3 agonist
[D-Tyr^6,βAla^11,Phe^13,Nle^14]Bombesin(6-14) [Compound 34]	non-selective for BRS-3 over GRP-R and NMB-R
NC(=O)CC[C@H](NC(=O)Cc1cc2ccccc2[nH]1)C(=O)N[C@H](Cc1c[nH]c2ccccc12)C(=O)NCCc1ccccc1 [Compound 2, N1-{(1R)-2-(1H-3-Indolyl)-1-[1-(2-phenylethyl)carbamoyl]ethyl}-(2S)-2-[(1H-2-indolylmethyl)carboxamido]pentanediamide]	selective BRS-3 agonists
O=C(NNC(=O)c1ccccc1)N[C@H](Cc1c[nH]c2ccccc12)C(=O)NCCc1ccccc1 [Compound 16, N1-(2-Phenylethyl)-(2R)-2-{{N′-(benzoyl)hydrazino]carboxamido}-3-(1H-3-indolyl)propanamide]	selective BRS-3 agonists
O=C(CNCc1ccc(Cl)cc1)N[C@H](Cc1c[nH]c2ccccc12)C(=O)NCCc1ccccc1 [Compound 10, N1-(2-Phenylethyl)-(2R)-2-{[(4-chlorobenzyl)amino]-methylcarboxamido}-3-(1H-3-indolyl)propanamide]	selective BRS-3 agonists
C[C@H](NC(=O)Cc1cccnc1)C(=O)N[C@H](Cc1c[nH]c2ccccc12)C(=O)NCCc1ccccc1 [Compound 6, N1-(2-Phenylethyl)-(2R)-2-{[(1S)-1-((3-pyridyl)methylcarboxamido)ethyl]carboxamido}-3-(1H-3-indolyl)propanamide]	selective BRS-3 agonists
O=C(CN1CCN(Cc2ccccc2)CC1)N[C@H](Cc1c[nH]c2ccccc12)C(=O)NCCc1ccccc1 [Compound 26]	selective BRS-3 agonists
O=C(NNCc1ccco1)N[C@H](Cc1c[nH]c2ccccc12)C(=O)NCCc1ccccc1 [Compound 25, N1-(2-Phenylethyl)-(2R)-2-{[N′-(2-furylmethyl)hydrazino]carboxamido}-3-(1H-3-indolyl)propanamide]	selective BRS-3 agonists
O=C(NNC(=O)c1ccc(Cl)cc1)N[C@H](Cc1c[nH]c2ccccc12)C(=O)NCCc1ccccc1 [Compound 17, N1-(2-Phenylethyl)-(2R)-2-{{N′-(4-chlorobenzoyl)-hydrazino]carboxamido}-3-(1H-3-indolyl)propanamide]	selective BRS-3 agonists
O=C(Cc1cccnc1)NNC(=O)N[C@H](Cc1c[nH]c2ccccc12)C(=O)NCCc1ccccc1 [Compound 18, N1-(2-Phenylethyl)-(2R)-2-{[N′-(2-(3-pyridyl)ethanoyl)hydrazino]carboxamido}-3-(1H-3-indolyl)propanamide]	selective BRS-3 agonists
O=C(CN1CCC(Cc2ccccc2)CC1)N[C@H](Cc1c[nH]c2ccccc12)C(=O)NCCc1ccccc1 [Compound 27, N1-(2-Phenylethyl)-(2R)-2-{[(4-benzylpiperidino)methyl]carboxamido}-3-(1H-3-indolyl)propanamide]	selective BRS-3 agonists
O=C(CNCCc1ccccc1)N[C@H](Cc1c[nH]c2ccccc12)C(=O)NCCc1ccccc1 [Compound 12, N1-(2-Phenylethyl)-(2R)-2-{[1-(2-phenylethyl)amino]-methylcarboxamido}-3-(1H-3-indolyl)propanamide]	selective BRS-3 agonists
O=C(NNCc1ccccc1)N[C@H](Cc1c[nH]c2ccccc12)C(=O)NCCc1ccccc1 [Compound 23, N1-(2-Phenylethyl)-(2R)-2-{[N′-(benzyl)hydrazino]carboxamido}-3-(1H-3-indolyl)propanamide]	selective BRS-3 agonists
O=C(CNCc1cccnc1)N[C@H](Cc1c[nH]c2ccccc12)C(=O)NCCc1ccccc1 [Compound 11, N1-(2-Phenylethyl)-(2R)-2-{[(3-pyridyl)methylamino]-methylcarboxamido}-3-(1H-3-indolyl)propanamide]	selective BRS-3 agonists
C[C@H](NC(=O)Cc1cc2ccccc2[nH]1)C(=O)N[C@H](Cc1c[nH]c2ccccc12)C(=O)NCCc1ccccc1 [Compound 8, N1-(2-Phenylethyl)-(2R)-2-{[(1S)-1-((1H2-indolyl)methylcarboxamido)ethyl]carboxamido}-3-(1H-3-indolyl)propanamide]	selective BRS-3 agonists
O=C(NN=Cc1ccco1)N[C@H](Cc1c[nH]c2ccccc12)C(=O)NCCc1ccccc1 [Compound 22, N1-(2-Phenylethyl)-(2R)-2-{[N′-(furan-2-ylmethylene)hydrazino]carboxamido}-3-(1H-3-indolyl)propanamide]	selective BRS-3 agonists
CC(NCc1ccccc1)C(=O)N[C@H](Cc1c[nH]c2ccccc12)C(=O)NCCc1ccccc1 (stereo partly shown) [Compound 13]	selective BRS-3 agonists

Molecule	selectivity as BRS-3 agonist
O=C(Cc1cc2ccccc2[nH]1)NNC(=O)N[C@H](Cc1c[nH]c2ccccc12)C(=O)NCCc1ccccc1 [Compound 20, N1-(2-Phenylethyl)-(2R)-2-{[N′-(2-(1H-2-indolyl)ethanoyl)hydrazino]carboxamido}-3-(1H-3-indolyl)propanamide]	selective BRS-3 agonists
C[C@H](NC(=O)CC1NCCc2ccccc21)C(=O)N[C@H](Cc1c[nH]c2ccccc12)C(=O)NCCc1ccccc1 (stereo partly drawn) [Compound 7, N1-(2-Phenylethyl)-(2R)-2-{[(1S)-1-((1,2,3,4-tetrahydro-1-isoquinolinyl)methylcarboxamido)ethyl]carboxamido}-3-(1H-3-indolyl)propanamide]	selective BRS-3 agonists
C[C@H](NC(=O)Cc1ccccc1)C(=O)N[C@H](Cc1c[nH]c2ccccc12)C(=O)NCCc1ccccc1 [Compound 3, N1-(2-Phenylethyl)-(2R)-2-{[(1S)-1-(benzylcarboxamido)ethyl]carboxamido}-3-(1H-3-indolyl)propanamide] (PhAc-Ala-[dW]-NHPhenethyl)	selective BRS-3 agonists
CC(NCc1ccc(Cl)cc1)C(=O)N[C@H](Cc1c[nH]c2ccccc12)C(=O)NCCc1ccccc1 (stereo partly drawn) [Compound 14, N1-(2-Phenylethyl)-(2R)-2-{[1-((4-chlorobenzyl)amino)ethyl]carboxamido}-3-(1H-3-indolyl)propanamide]	selective BRS-3 agonists
O=C(CNCc1ccccc1)N[C@H](Cc1c[nH]c2ccccc12)C(=O)NCCc1ccccc1 [Compound 9, N1-(2-Phenylethyl)-(2R)-2-{[(benzyl)amino]methylcarboxamido}-3-(1H-3-indolyl)propanamide] (H-[Nphe]-[dW]-NHPhenethyl)	selective BRS-3 agonists
CC(NCCc1ccccc1)C(=O)N[C@H](Cc1c[nH]c2ccccc12)C(=O)NCCc1ccccc1 (stereo partly drawn) [Compound 15, N1-(2-Phenylethyl)-(2R)-2-{[1-(1-(2-phenylethyl)amino)ethyl]carboxamido}-3-(1H-3-indolyl)propanamide]	selective BRS-3 agonists
Ac-Phe-Trp-Ala-His(τBzl)-Nip-Gly-Arg-NH2 [Compound 31]	selective BRS-3 agonists
C[C@H](NC(=O)Cc1ccc(Cl)cc1)C(=O)N[C@H](Cc1c[nH]c2ccccc12)C(=O)NCCc1ccccc1 [Compound 4, N1-(2-Phenylethyl)-(2R)-2-{[(1S)-1-((4-chlorobenzyl)-carboxamido)ethyl]carboxamido}-3-(1H-3-indolyl)propanamide]	selective BRS-3 agonists
Ac-Phe-Trp-Ala-His(τBzl)-βAla-His-Arg-NH2 [Compound 32]	selective BRS-3 agonists
O=C(NNCc1ccc(Cl)cc1)N[C@H](Cc1c[nH]c2ccccc12)C(=O)NCCc1ccccc1 [Compound 24, N1-(2-Phenylethyl)-(2R)-2-{[N′-(4-chlorobenzyl)hydrazino]carboxamido}-3-(1H-3-indolyl)propanamide]	selective BRS-3 agonists
C[C@H](NC(=O)Cc1ccc2c(c1)OCO2)C(=O)N[C@H](Cc1c[nH]c2ccccc12)C(=O)NCCc1ccccc1 [Compound 5, N1-(2-Phenylethyl)-(2R)-2-{[(1S)-1-((1,3-benzodioxol-5-ylmethyl)carboxamido)ethyl]carboxamido}-3-(1H-3-indolyl)propanamide]	selective BRS-3 agonists
O=C(NN=Cc1ccccc1)N[C@H](Cc1c[nH]c2ccccc12)C(=O)NCCc1ccccc1 [Compound 21, N1-(2-Phenylethyl)-(2R)-2-{[N′-(phenylmethylene)-hydrazino]carboxamido}-3-(1H-3-indolyl)propanamide]	selective BRS-3 agonists
O=C(CC1NCCc2ccccc21)NNC(=O)N[C@H](Cc1c[nH]c2ccccc12)C(=O)NCCc1ccccc1 (stereo partly drawn) [Compound 19, N1-(2-Phenylethyl)-(2R)-2-{{N′-(2-(1,2,3,4-tetrahydro-1-isoquinolinyl)ethanoyl)hydrazino]carboxamido}-3-(1H-3-indolyl)propanamide]	selective BRS-3 agonists
Ac-FWAV[βAla]HRW-NH2 [Compound 33]	selective BRS-3 agonists
NC(=O)CC[C@H](NC(=O)CCc1ccc(Cl)cc1)C(=O)N[C@H](Cc1c[nH]c2ccccc12)C(=O)NCCc1ccccc1 [Compound 1, N1-{(1R)-2-(1H-3-Indolyl)-1-[1-(2-phenylethyl)carbamoyl]ethyl}-(2S)-2-[1-(2-(4-chlorophenyl)ethyl)carboxamido]pentanediamide]	selective BRS-3 agonists
